Source: PMC12481576, “Barbituric Acid Derivatives as Covalent Inhibitors of Leishmania braziliensis Dihydroorotate Dehydrogenase” (Journal of Medicinal Chemistry, 2025)
Where two headings read alike, the source gives them in different places.

Experiments:
HsDHODH = target: T1, HsDHODH (Homo sapiens, UniProt Q02127); assay: Selectivity assay: HsDHODH single-dose inhibition (DCIP reduction); format: biochemical
T1 construct: made in house
Experimental: […]. This finding highlights the potential of barbituric acid derivatives as selective inhibitors of LbDHODH.
Human DHODH expression and purification were conducted following a protocol previously established in our laboratory. The purification was carried out by affinity chromatography on a Ni-NTA Agarose column (Qiagen[…] Cat. No. 30210). […] The reaction was performed in triplicate, initiated by adding 195 μL of reaction buffer to 5 μL of HsDHODH protein solution for a final concentration of 20 nM enzyme. As a blank, 195 μL of reaction buffer was added to 5 μL of Buffer A. The reaction was monitored at 610 nm every 3 s over 60 s. As a control, 5 μL of enzyme was added to 195 μL of reaction medium without compound. Enzymatic velocity was calculated, and the percentage of relative enzymatic activity was determined relative to the control.

LbDHODH = LbDHODH (Leishmania braziliensis, UniProt E9AI53); assay: biochemical; settings: for IC50: LbDHODH
Experimental: To assess the ability of compounds 2a–2i to inhibit LbDHODH via covalent bond formation with Cys^131, we initially screened them at a concentration of 100 μM under two conditions: with and without a 4-h preincubation with the enzyme.
The experiments were performed in a 96-well microplate reader (SpectraMax Plus 384, Molecular Devices, USA), containing the […] of the buffer 60 mM DCIP, 50 mM Tris pH 8.15, 150 mM KCl, 0.1% Triton X-100, 50 μM DHO and 10 μM of LbDHODH at 165 nM. The reaction was monitored every 3 s at 610 nm over a period of 60 s, in triplicate, for the control and each concentration of the inhibitor. All assays were performed without incubation (0h) and with 4-h preincubation of the inhibitor with LbDHODH, using 5% DMSO (v/v) as control. […]. […] The resulting kobs values were plotted as a function of inhibitor concentration, and the data in the initial linear region was fit to determine the slope, which is kinact/KI. All regressions were performed with GraphPad Prism 9.

[1] = Cell viability / cytotoxicity assay (PrestoBlue, 72 h); format: cell-based; settings: human; THP-1 cell line, 72 h, max 200 μM; read-out: CC50
Experimental: THP-1 cells (American Type Cell Collection, #TIB-202) were acquired in 2019 and stored frozen in liquid nitrogen. The cells were then maintained in RPMI 1640 (Thermo Fisher Scientific, #S31800–022) at 37 °C in a 5% CO2 atmosphere and routinely tested for Mycoplasma contamination by PCR using the primers 5′-[…] and 5′-[…]. To test the toxicity of compounds, 5000 cells were added to 96-well plates with a final volume of 80 μL centrifuged at 400g for 2 min and incubated with 150 ng/mL of phorbol myristate acetate (Merck, #P8139) for 48 h. The medium was replaced, and after 24 h, the compounds were added and tested at decreasing concentrations starting from 200 μM (10 μL/well). After 72 h of incubation, 10 μL of PrestoBlue Cell Viability Reagent (Thermo Fisher Scientific, #A13262) was added per well. After adding the reagent, the cells were incubated for 2 h at 37 °C in a 5% CO2 atmosphere, and fluorescence readings were performed using the SpectraMax M3 reader (excitation at 560 nm and emission at 590 nm).

[2] = test system: Leishmania braziliensis promastigotes; assay: Leishmanicidal activity, promastigote growth (SYBR Green, 72 h); format: cell-based, Leishmania (V.) braziliensis (MHOM/BR/1975/M2904); settings: Leishmania braziliensis, L. braziliensis promastigotes, max 200 μM
Experimental: The cultures were adjusted to 4 × 10^6 parasites per mL, and 50 μL of each culture was added on a test plate with 384 wells (Corning, #CLS3658), along with the controls and compounds to be tested. Previously diluted compounds in DMSO were added to plates in decreasing concentrations, with a maximum concentration of 200 μM. Parasites were exposed to a final concentration of DMSO in various dilutes (final = 0.5%), and the culture medium was used as the control for the experiment. […] After adding the lysis buffer, the plates were incubated in the dark for 2 h with gentle shaking. The readings were done using a SpectraMax M3 reader (excitation at 485 nm and emission at 535 nm).

[3] = Parallel artificial membrane permeability assay (PAMPA); settings: PBS pH 7.4/7.4, 6h at room temperature; for recovery at 6 h, 10 µM: PAMPA; for recovery at 6 h, 10 µM / Avg Log Pe (cm/sec) / Avg Pe: 10µM; for Pe (nm/sec) n=1: replicate n=1; for Pe (nm/sec) n=1 / Pe (nm/sec) n=2: 10µM (5% DMSO), LC-MS/MS; for Pe (nm/sec) n=2: replicate n=2
Experimental: Solutions of the compounds were prepared in duplicate by diluting the stock solutions (10 mM) in phosphate buffered saline (PBS) pH 7.4 at a final concentration of 10 μM (5% DMSO). The solutions diluted in PBS pH 7.4 were then added to the donor portion of the plate (300 μL/well), while in the acceptor portion PBS pH 7.4 (200 μL/well) was added. The two portions of the plate were then coupled, and the system was incubated for 6 h at room temperature. Samples of the initial donor solution (T0) were collected at the beginning (T0) and stored at 5 °C. The final concentrations of compounds in the donor, acceptor and T0 wells were quantified by LC-MS/MS.

[4] = mouse liver microsomes; for Raw data: analyte peak area, T=0: 0 min; for Raw data: analyte peak area, T=0 / Raw data: analyte peak area, T=5 / Raw data: analyte peak area, T=10 / Raw data: analyte peak area, T=20 / Raw data: analyte peak area, T=30 / Raw data: analyte peak area, T=60: raw LC-MS area; for Raw data: analyte peak area, T=10: 10 min; for Raw data: analyte peak area, T=30: 30 min; for Raw data: analyte peak area, T=60: 60 min
in vitro = settings: liver microsomes, pH 7.4, % Remaining, 1 µM; for remaining at 10 min, 1 µM: T=10 min; for remaining at 1 h, 1 µM: T=60 min, 60 min
[5] = read-out: Single dose (0h) % activity
[6] = read-out: Single dose (4h) % activity
[7] = pH 7.4, % Recovery n=1, replicate n=1
[8] = pH 7.4, % Recovery n=2, replicate n=2
[9] = pH 7.4, Avg % Recovery, average of n=2
[10] = mouse, n=1, mouse liver microsomes, n=1
[11] = mouse, n=2, mouse liver microsomes, n=2

LbDHODH, sequence (E9AI53 entry or part of it): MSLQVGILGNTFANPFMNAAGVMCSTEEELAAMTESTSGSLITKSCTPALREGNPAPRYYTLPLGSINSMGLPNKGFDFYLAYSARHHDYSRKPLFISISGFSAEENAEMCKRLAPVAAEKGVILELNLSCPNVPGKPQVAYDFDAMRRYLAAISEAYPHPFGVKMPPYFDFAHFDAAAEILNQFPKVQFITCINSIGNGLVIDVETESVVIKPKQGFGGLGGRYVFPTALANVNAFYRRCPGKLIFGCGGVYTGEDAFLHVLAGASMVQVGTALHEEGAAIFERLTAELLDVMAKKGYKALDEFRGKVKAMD
T1 sequence (Q02127 whole entry): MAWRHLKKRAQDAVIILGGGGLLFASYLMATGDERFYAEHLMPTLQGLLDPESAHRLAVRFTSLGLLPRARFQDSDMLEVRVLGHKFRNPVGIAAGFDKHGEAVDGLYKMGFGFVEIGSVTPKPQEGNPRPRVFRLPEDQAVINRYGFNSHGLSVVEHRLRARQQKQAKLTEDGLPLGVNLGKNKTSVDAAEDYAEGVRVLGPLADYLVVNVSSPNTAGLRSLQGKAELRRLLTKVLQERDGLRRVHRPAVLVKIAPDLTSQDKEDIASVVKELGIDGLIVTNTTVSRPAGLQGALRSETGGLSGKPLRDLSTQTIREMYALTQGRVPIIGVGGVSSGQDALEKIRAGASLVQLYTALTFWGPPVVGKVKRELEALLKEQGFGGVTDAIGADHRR

O=C1NC(=O)C(Cc2ccc(N3CCOCC3)cc2[N+](=O)[O-])C(=O)N1 [3e, 5-(4-Morpholino-2-nitrobenzyl)pyrimidine-2,4,6(1H,3H,5H)-trione]
activity at 100 µM (HsDHODH; [5]): 105 ± 12%
activity at 100 µM (HsDHODH; [6]): 89 ± 9%
IC50 (LbDHODH; IC50 0 h, without preincubation): > 100 µM
IC50 (LbDHODH; IC50 4 h, 4-h preincubation): > 100 µM
activity at 100 µM (LbDHODH; [5]): 90 ± 10%
activity at 100 µM (LbDHODH; [6]): 80 ± 20%
CC50 at 72 h [1]: > 200 µM
EC50 [2]: 23 ± 16 µM

O=C1NC(=O)C(CCCc2ccccc2)C(=O)N1 [3ii, 5-(3-Phenylpropyl)pyrimidine-2,4,6(1H,3H,5H)-trione]
activity at 100 µM (HsDHODH; [5]): 99 ± 11%
activity at 100 µM (HsDHODH; [6]): 96 ± 9%
activity at 100 µM (LbDHODH; LbDHODH remaining activity, compound 100 μM, 4-h preincubation, read-out: single dose (4 h) % activity): 21 ± 7%
activity at 100 µM (LbDHODH; LbDHODH remaining activity, compound 100 μM, without preincubation, read-out: single dose (0 h) % activity): 98 ± 5%
CC50 at 72 h [1]: > 200 µM
EC50 [2]: 23 ± 6 µM

O=C1NC(=O)C(CC=Cc2ccccc2)C(=O)N1 [3i, 5-Cinnamylpyrimidine-2,4,6(1H,3H,5H)-trione]
activity at 100 µM (HsDHODH; [5]): 102 ± 12%
activity at 100 µM (HsDHODH; [6]): 98 ± 10%
activity at 100 µM (LbDHODH; [5]): 103 ± 3%
activity at 100 µM (LbDHODH; [6]): 21 ± 7%
CC50 at 72 h [1]: 193 ± 67 µM
EC50 [2]: > 200 µM

NC(=O)N1c2ccccc2C=Cc2ccccc21 [Carbamazepine]
recovery at 6 h, 10 µM [3, 7]: 100%
recovery at 6 h, 10 µM [3, 8]: 92.5%
recovery at 6 h, 10 µM [3, 9]: 96.3%
Avg Log Pe (cm/sec) ([3]; average of n=2): -5.1 cm/sec
Avg Pe ([3]; average of n=2): 7.83 ×10⁻⁶ cm/s
Pe (nm/sec) n=1 [3]: 80.3 nm/s
Pe (nm/sec) n=2 [3]: 76.4 nm/s

NS(=O)(=O)c1cc(C(=O)O)c(NCc2ccco2)cc1Cl [Furosemide]
recovery at 6 h, 10 µM [3, 7]: 89.7%
recovery at 6 h, 10 µM [3, 8]: 91.4%
recovery at 6 h, 10 µM [3, 9]: 90.6%
Avg Pe ([3]; average of n=2): 4.97e-05 ×10⁻⁶ cm/s
Pe (nm/sec) n=1 [3]: 0.000533 nm/s
Pe (nm/sec) n=2 [3]: 0.000461 nm/s

CC(C)NCC(O)COc1cccc2ccccc12 (stereo not shown) [Propranolol]
recovery at 6 h, 10 µM [3, 7]: 85.7%
recovery at 6 h, 10 µM [3, 8]: 82.4%
recovery at 6 h, 10 µM [3, 9]: 84%
Avg Log Pe (cm/sec) ([3]; average of n=2): -5.2 cm/sec
Avg Pe ([3]; average of n=2): 6.15 ×10⁻⁶ cm/s
Pe (nm/sec) n=1 [3]: 53.6 nm/s
Pe (nm/sec) n=2 [3]: 69.4 nm/s
Raw data: analyte peak area, T=0 ([4]; replicate 1 (left block)): 97333
Raw data: analyte peak area, T=0 ([4]; replicate 2 (right block)): 94436
% Remaining, T=5 min, n=1 ([4]; 1 µM, 5 min, n=1): 58.1%
% Remaining, T=20 min, n=1 ([4]; 1 µM, 20 min, n=1): 31.9%
Raw data: analyte peak area, T=5 ([4]; 5 min, replicate 1 (left block)): 56345
Raw data: analyte peak area, T=5 ([4]; 5 min, replicate 2 (right block)): 55807
Raw data: analyte peak area, T=10 ([4]; replicate 1 (left block)): 45227
Raw data: analyte peak area, T=10 ([4]; replicate 2 (right block)): 43475
Raw data: analyte peak area, T=20 ([4]; 20 min, replicate 1 (left block)): 29264
Raw data: analyte peak area, T=20 ([4]; 20 min, replicate 2 (right block)): 29449
Raw data: analyte peak area, T=30 ([4]; replicate 1 (left block)): 21377
Raw data: analyte peak area, T=30 ([4]; replicate 2 (right block)): 25558
Raw data: analyte peak area, T=60 ([4]; replicate 1 (left block)): 15713
Raw data: analyte peak area, T=60 ([4]; replicate 2 (right block)): 15931
remaining at 5 min, 1 μM (in vitro; male, CD1, mouse, T=5 min, n=2, mouse liver microsomes, 5 min, n=2): 52.5%
remaining at 10 min, 1 µM (in vitro; [10]): 46.8%
remaining at 10 min, 1 µM (in vitro; [11]): 43.5%
remaining at 20 min, 1 µM (in vitro; mouse, T=20 min, n=2, mouse liver microsomes, 20 min, n=2): 31.2%
remaining at 0.5 h, 1 µM (in vitro; mouse, T=30 min, n=1, mouse liver microsomes, 30 min, n=1): 22.7%
remaining at 1 h, 1 µM (in vitro; [10]): 16%
remaining at 1 h, 1 µM (in vitro; [11]): 15.5%
